Where two headings read alike, the source gives them in different places.
System: A375 Sensitive cells
Assay: Viability test, trypan blue exclusion, A375 Sensitive cells
Format: cell-based, human
Details: Homo sapiens, A-375, viable cells as percentage of DMSO control
In short: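 A375 (B-Raf, CDKN2A, PTEN mutant) cells were exposed to compounds at 5.0 or 10 μM for 24 or 48 hr; CRO15 also at 0.5–50 μM for 48 hr or 5 μM for 2–48 hr; DMSO control. Viable cells were counted by trypan blue exclusion, as % of control. Three experiments in triplicate.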

[1] = 24 h, read-out: Viab A375 5 μM/ 24 h
[2] = 48 h, read-out: Viab A375 5 μM/ 48 h
[3] = 24 h, read-out: Viab A375 10 μM/ 24 h
[4] = 48 h, read-out: Viab A375 10 μM/ 48 h

SMILES	viability at 5 µM [1]	viability at 5 µM [2]	viability at 10 µM [3]	viability at 10 µM [4]
Nc1nc(Nc2ccccc2SSc2ccccc2Nc2nc(N)nc(-c3cnccn3)n2)nc(-c2cnccn2)n1 [MTF 348, N2,N2′-(disulfanediylbis(2,1-phenylene))bis(6-(pyrazin-2-yl)-1,3,5-triazine-2,4-diamine)]	102%	79.6%	110%	35.8%
N=c1nc(C(Cl)(Cl)Cl)nc(Nc2ccccc2O)[nH]1 [MTF 373, 2-((4-amino-6-(trichloromethyl)-1,3,5-triazin-2-yl)amino)phenol]	34.3%	22.5%	38.6%	22.8%
N=c1nc(C(Cl)(Cl)Cl)nc(Nc2cc(Cl)ccc2O)[nH]1 [MTF 374, 2-((4-amino-6-(trichloromethyl)-1,3,5-triazin-2-yl)amino)-4-chlorophenol]	47%	69.2%	24%	27.7%
N=c1nc(C(Cl)(Cl)Cl)nc(Nc2ccc(Cl)cc2O)[nH]1 [MTF 375]	47.2%	29.5%	30.9%	15.5%
Nc1nc(Nc2ccc([N+](=O)[O-])cc2O)nc(C(Cl)(Cl)Cl)n1 [MTF 376, 2-((4-amino-6-(trichloromethyl)-1,3,5-triazin-2-yl)amino)-5-nitrophenol]	44.7%	38.9%	24.3%	20.9%
Nc1nc(Nc2cc([N+](=O)[O-])ccc2O)nc(C(Cl)(Cl)Cl)n1 [MTF 377, 2-((4-amino-6-(trichloromethyl)-1,3,5-triazin-2-yl)amino)-4-nitrophenol]	27.3%	34.4%	22.7%	33.5%
N=C(NC(=N)c1ccc(Cl)nc1)Nc1nc2ccccc2s1 [MTF 379, N—(N-(benzo[d]thiazol-2-yl)carbamimidoyl)-6-chloronicotinimidamide]	148%	76.9%	95.7%	86.2%
N=C(NC(=N)c1ccnc(Cl)c1)Nc1nc2ccccc2s1 [MTF 380, N—(N-(benzo[d]thiazol-2-yl)carbamimidoyl)-2-chloroisonicotinimidamide]	47.3%	4.9%	36.2%	2.3%
N=C(NC(=N)c1cccs1)Nc1nc2ccccc2s1 [MTF 381, N—(N-(benzo[d]thiazol-2-yl)carbamimidoyl)thiophene-2-carboximidamide]	88.3%	61.6%	90.6%	61.4%
COc1cc(C(=N)NC(=N)Nc2nc3ccccc3s2)cc(OC)c1OC [MTF 382, N—(N-(benzo[d]thiazol-2-yl)carbamimidoyl)-3,4,5-trimethoxybenzimidamide]	14.7%	1.8%	17.4%	4.5%
N=C(NC(=N)c1ccc2c(c1)OCO2)Nc1nc2ccccc2s1 [MTF 383, N—(N-(benzo[d]thiazol-2-yl)carbamimidoyl)benzo[d][1,3]dioxole-5-carboximidamide]	43.1%	40.6%	41.6%	7.1%
N=C(NC(=N)c1ccc2ccccc2c1)Nc1nc2ccccc2s1 [MTF 384, N—(N-(benzo[d]thiazol-2-yl)carbamimidoyl)-2-naphthimidamide]	76.1%	119%	93.3%	72.2%
N=C(NC(=N)c1ccc(C(F)(F)F)cc1)Nc1nc2ccccc2s1 [MTF 385, N—(N-(benzo[d]thiazol-2-yl)carbamimidoyl)-4-(trifluoromethyl)benzimidamide]	52.3%	68.1%	86.6%	81.5%
N=C(NC(=N)c1ccnc(Br)c1)Nc1nc2ccccc2s1 [MTF 386, N—(N-(benzo[d]thiazol-2-yl)carbamimidoyl)-2-bromoisonicotinimidamide]	28.9%	6.6%	18.1%	3.7%
N=C(NC(=N)c1cscc1Br)Nc1nc2ccccc2s1 [MTF 387, N—(N-(benzo[d]thiazol-2-yl)carbamimidoyl)-4-bromothiophene-3-carboximidamide]	70.1%	56.2%	67.8%	55.6%
CC1(C)C=Cc2cc(C(=N)NC(=N)Nc3nc4ccccc4s3)ccc2O1 [MTF 388, N—(N-(benzo[d]thiazol-2-yl)carbamimidoyl)-2,2-dimethyl-2H-chromene-6-carboximidamide]	61.4%	65.1%	55.7%	18.4%
N=C(NC(=N)c1ncc(Cl)cc1Cl)Nc1nc2ccccc2s1 [MTF 389, N—(N-(benzo[d]thiazol-2-yl)carbamimidoyl)-3,5-dichloropicolinimidamide]	74.6%	85.6%	75.8%	76.4%
Nc1nc(Nc2ccccc2SSc2ccccc2Nc2nc(N)nc(-c3ccc(C(F)(F)F)cc3)n2)nc(-c2ccc(C(F)(F)F)cc2)n1 [MTF 394, N2,N2′-(disulfanediylbis(2,1-phenylene))bis(6-(4-(trifluoromethyl)phenyl)-1,3,5-triazine-2,4-diamine)]	13.1%	4.4%	4.5%	1.1%
Nc1nc(Nc2ccccc2SSc2ccccc2Nc2nc(N)nc(-c3cccs3)n2)nc(-c2cccs2)n1 [MTF 396, N2,N2′-(disulfanediylbis(2,1-phenylene))bis(6-(thiophen-2-yl)-1,3,5-triazine-2,4-diamine)]	19.2%	12.1%	7.5%	0%
Nc1nc(Nc2ccccc2SSc2ccccc2Nc2nc(N)nc(-c3cscc3Br)n2)nc(-c2cscc2Br)n1 [MTF 397, N2,N2′-(disulfanediylbis(2,1-phenylene))bis(6-(4-bromothiophen-3-yl)-1,3,5-triazine-2,4-diamine)]	35.4%	33.7%	13.4%	7.3%
N=C(NC(=N)c1ccc([N+](=O)[O-])cc1)Nc1nc2ccccc2s1 [MTF 398, N—(N-(benzo[d]thiazol-2-yl)carbamimidoyl)-4-nitrobenzimidamide]	91.9%	132%	91%	109%
Nc1nc(Nc2ccccc2SSc2ccccc2Nc2nc(N)nc(-c3ccc4ccccc4c3)n2)nc(-c2ccc3ccccc3c2)n1 [MTF 443, N2,N2′-(disulfanediylbis(2,1-phenylene))bis(6-(naphthalen-2-yl)-1,3,5-triazine-2,4-diamine)]	42.3%	10.2%	13.8%	7.8%
Nc1nc(Nc2ccccc2SSc2ccccc2Nc2nc(N)nc(-c3cccc([N+](=O)[O-])c3)n2)nc(-c2cccc([N+](=O)[O-])c2)n1 [MTF 445, N2,N2′-(disulfanediylbis(2,1-phenylene))bis(6-(3-nitrophenyl)-1,3,5-triazine-2,4-diamine)]	62.6%	35.2%	72.4%	16.3%
COc1cc(-c2nc(N)nc(Nc3ccccc3SSc3ccccc3Nc3nc(N)nc(-c4cc(OC)c(OC)c(OC)c4)n3)n2)cc(OC)c1OC [MTF 446, N2,N2′-(disulfanediylbis(2,1-phenylene))bis(6-(3,4,5-trimethoxyphenyl)-1,3,5-triazine-2,4-diamine)]	62.6%	13%	16.3%	1.8%
Nc1nc(Nc2ccccc2SSc2ccccc2Nc2nc(N)nc(-c3ccc4c(c3)OCO4)n2)nc(-c2ccc3c(c2)OCO3)n1 [MTF 449, N2,N2′-(disulfanediylbis(2,1-phenylene))bis(6-(benzo[d][1,3]dioxol-5-yl)-1,3,5-triazine-2,4-diamine)]	74.2%	67.8%	59.1%	53%
Nc1nc(Nc2ccccc2SSc2ccccc2Nc2nc(N)nc(-c3ccccc3Cl)n2)nc(-c2ccccc2Cl)n1 [MTF 450, N2,N2′-(disulfanediylbis(2,1-phenylene))bis(6-(2-chlorophenyl)-1,3,5-triazine-2,4-diamine)]	38.6%	54.8%	38.3%	49.9%
Cc1ccc(-c2nc(N)nc(Nc3ccccc3SSc3ccccc3Nc3nc(N)nc(-c4ccc(C)cc4)n3)n2)cc1 [MTF 451, N2,N2′-(disulfanediylbis(2,1-phenylene))bis(6-(p-tolyl)-1,3,5-triazine-2,4-diamine)]	26.1%	23.9%	10.6%	12.5%
Nc1nc(Nc2ccccc2SSc2ccccc2Nc2nc(N)nc(-c3ccccc3F)n2)nc(-c2ccccc2F)n1 [MTF 452, N2,N2′-(disulfanediylbis(2,1-phenylene))bis(6-(2-fluorophenyl)-1,3,5-triazine-2,4-diamine)]	43.6%	60.5%	22.3%	40.3%

From patent publication US11440906B2, “Biguanide derivatives and their rearrangement products for use in the treatment of cancer” (CENTRE NATIONAL DE LA RECHERCHE SCIENTIFIQUE, priority 2017, dated 2022)
